Results as given in paper PMC11731258, “The structural basis for high-affinity c-di-GMP binding to the GSPII-B domain of the traffic ATPase PilF from Thermus thermophilus” (The Journal of Biological Chemistry, 2024).
Values joined by “and” are separate entries in the source; they are usually repeats but may differ in a detail not shown here. Equal entries are not always repeated. Where two headings read alike, the source gives them in different places.

Assays:
[1] = target: T1, PilF1-482 (GSPII-A, -B, -C; lacks ATPase domain) (Thermus thermophilus, UniProt Q5SLC9); test: ITC binding to PilF1-482; conditions: 20 °C; for Kd: pH 7.5, two-site model
T1 sequence (Q5SLC9 1-482): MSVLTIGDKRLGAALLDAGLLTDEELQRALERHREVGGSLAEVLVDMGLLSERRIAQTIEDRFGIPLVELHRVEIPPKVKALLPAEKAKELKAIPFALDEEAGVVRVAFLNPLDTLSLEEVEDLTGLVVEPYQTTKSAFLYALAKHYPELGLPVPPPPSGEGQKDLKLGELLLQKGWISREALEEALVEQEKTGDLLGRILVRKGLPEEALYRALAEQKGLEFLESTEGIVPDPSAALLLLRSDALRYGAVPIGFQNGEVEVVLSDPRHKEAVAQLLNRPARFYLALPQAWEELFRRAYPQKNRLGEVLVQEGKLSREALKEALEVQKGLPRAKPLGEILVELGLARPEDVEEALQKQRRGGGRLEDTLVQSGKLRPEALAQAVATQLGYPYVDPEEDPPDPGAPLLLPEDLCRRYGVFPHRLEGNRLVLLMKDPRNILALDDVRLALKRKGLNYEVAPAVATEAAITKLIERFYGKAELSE
Method: (§1) To assess the ligand-binding capabilities of the various PilF constructs, triplicates of ITC measurements were recorded for each construct. The measurements were carried out using a MicroCal ITC200 (Malvern Panalytical). All ITC experiments were conducted at 20 °C with 50 mM Tris-HCl pH 7.5, 200 mM sodium chloride, 1 mM β-mercaptoethanol as the sample buffer. All protein samples were extensively dialyzed against the sample buffer and the buffer used for dialysis was used to dilute protein and c-di-GMP samples in preparation for the ITC measurements. Each measurement was conducted using the following protocol. In total, 39.8 μl c-di-GMP were titrated to 270 μl protein in 20 separate injections in 180 s intervals with a stirring speed of 750 rpm. After an initial delay of 120 s, the first injection of 0.2 μl c-di-GMP with a duration of 0.4 s was followed by 19 injections of 2 μl with a duration of 4 s. During the measurement, the feedback mode was set to high and the reference power to 11 μcal s^−1. To optimize precision of the measurements, protein and c-di-GMP concentrations were adjusted to the binding capabilities of the respective constructs and ranged from 5 to 200 μM for protein and 50 to 2000 μM for c-di-GMP. All thermograms were processed using Origin 7.0 (OriginLab) using a one-site– or two-site–binding model dependent on the number of expected binding events.

[2] = target: T2, PilF159-302 (GSPII-B domain) (Thermus thermophilus, UniProt Q5SLC9); test: ITC binding to PilF159-302; conditions: for N / ΔH / ΔS / Kd: ITC
T2 sequence (Q5SLC9 159-302): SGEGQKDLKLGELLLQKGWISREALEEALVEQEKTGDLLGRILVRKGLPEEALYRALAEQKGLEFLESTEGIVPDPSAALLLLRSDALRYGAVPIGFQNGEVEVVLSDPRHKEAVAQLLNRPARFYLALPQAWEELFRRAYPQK
Method: as §1, with “All ITC experiments were conducted at 20 °C with 50 mM Tris-HCl pH 7.5, 200 mM sodium chloride, 1 mM β-mercaptoethanol as the sample buffer.” left out

PilF159-302 K167R = target: T3, PilF159-302 K167R (Thermus thermophilus, UniProt Q5SLC9, K167R); test: ITC binding to PilF159-302 K167R; conditions: 20 °C
T3 sequence (Q5SLC9 159-302 K167R): T2 sequence (Q5SLC9 159-302)
Method: as §1

PilF159-302 Q190E = target: T4, PilF159-302 Q190E (Thermus thermophilus, UniProt Q5SLC9, Q190E); test: ITC binding to PilF159-302 Q190E; conditions: 20 °C
T4 sequence (Q5SLC9 159-302 Q190E): T2 sequence (Q5SLC9 159-302)
Method: as §1

PilF159-302 L196R = target: T5, PilF159-302 L196R (Thermus thermophilus, UniProt Q5SLC9, L196R); test: ITC binding to PilF159-302 L196R; conditions: 20 °C
T5 sequence (Q5SLC9 159-302 L196R): T2 sequence (Q5SLC9 159-302)
Method: as §1

PilF GSPII-A domain = test: ITC comparison of domain truncation constructs; assay type: binding, Thermus thermophilus; conditions: inferred from ITC of PilF1-302 vs PilF159-302 and PilF1-482
Method: as §1

[3] = target: MshEN (N-terminal domain of ATPase MshE); parameters: method as in PMID 27578558; conditions: full length MshEN; cited from earlier work
PilZ domain of PlzD = target: PilZ domain of PlzD; parameters: method as in PMID 18034161; conditions: cited from earlier work
[4] = target: degenerate EAL-domain of FimX; parameters: method as in PMID 19679088; conditions: cited from earlier work
PilB2 = target: PilB2; parameters: method as in PMID 27578558, PMID 31868878; conditions: cited from earlier work
PilB = target: PilB; parameters: method as in PMID 27578558, PMID 31868878; conditions: cited from earlier work

Nc1nc2c(ncn2[C@@H]2O[C@@H]3COP(=O)(O)O[C@H]4[C@@H](O)[C@H](n5cnc6c(=O)[nH]c(N)nc65)O[C@@H]4COP(=O)(O)O[C@H]3[C@H]2O)c(=O)[nH]1 [c-di-GMP, cyclic dimeric guanosine monophosphate]
N, site 1 ([1]; Table S1 site 1): 0.98 ± 0.04
ΔH, site 1 ([1]; Table S1 site 1): -12793 ± 95 cal/mol
ΔS, site 1 ([1]; Table S1 site 1): -14.6 ± 0.2 cal/mol/deg
N, site 2 ([1]; Table S1 site 2): 0.85 ± 0.03
ΔH, site 2 ([1]; Table S1 site 2): -17536 ± 128 cal/mol
ΔS, site 2 ([1]; Table S1 site 2): -24.3 ± 0.3 cal/mol/deg
Kd ([1]; read-out: KD, high-affinity site (KD1 in text; site 2 in Table S1)): 17 ± 1 nM
Kd ([1]; read-out: KD, low-affinity site (KD2 in text; site 1 in Table S1)): 461 ± 36 nM
fold higher affinity than MshEN ([2]; GSPII-B (KD 6 nM) vs MshEN (KD 500 nM)): 83 fold
N ([2]; 20 °C): 0.66 ± 0.02
ΔH ([2]; 20 °C): -10795 ± 1145 cal/mol
ΔS ([2]; 20 °C): -0.8 ± 4.0 cal/mol/deg
N ([2]; 45 °C): 0.88 ± 0.11
ΔH ([2]; 45 °C): -13327 ± 1389 cal/mol
ΔS ([2]; 45 °C): -6.6 ± 4.2 cal/mol/deg
Kd ([2]; 20 °C, pH 7.5): 6 nM
Kd ([2]; 45 °C): 20 nM
increase in the free enthalpy of binding compared to MshEN ([2]; at 20 °C): ~2.7 kcal/mol
N (PilF159-302 K167R): 0.79 ± 0.03
ΔH (PilF159-302 K167R): -10420 ± 552 cal/mol
ΔS (PilF159-302 K167R): -4.4 ± 1.9 cal/mol/deg
Kd (PilF159-302 K167R; pH 7.5): 150 ± 7 nM
N (PilF159-302 Q190E): 1.11 ± 0.03
ΔH (PilF159-302 Q190E): -3389 ± 156 cal/mol
ΔS (PilF159-302 Q190E): 15.4 ± 0.4 cal/mol/deg
Kd (PilF159-302 Q190E; pH 7.5): 950 ± 7 nM
N (PilF159-302 L196R): 1.23 ± 0.03
ΔH (PilF159-302 L196R): -8148 ± 209 cal/mol
ΔS (PilF159-302 L196R): 7.1 ± 0.8 cal/mol/deg
Kd (PilF159-302 L196R; pH 7.5): 23 ± 2 nM
ability to bind c-di-GMP (PilF GSPII-A domain): lacking the ability to bind c-di-GMP
Kd [3]: ~500 nM and 500 nM
Kd (PilZ domain of PlzD): 100 to 300 nM
Kd [4]: 100 to 200 nM
Kd (PilB2): 13.5 nM
Kd (PilB): 53 nM
